For data set [1], the target named is Cyclin-dependent kinase 1/cyclin B1 (Homo sapiens, UniProt P06493). Description: Inhibition of CDK1/cyclin B. It counts as protein-complex assay.
Data set [2] can be described thus: Inhibition of PKA.
The target of data set [3] is Mitogen-activated protein kinase 1 (Homo sapiens, UniProt P28482). Description: Inhibition of ERK2.
The subject of data set [4] is A2780. Put plainly: Growth inhibition of cisplatin-susceptible human A2780 cells after 96 hrs by sulforhodamine B assay. The format is functional. The conditions noted are these: A2780, 96 h.
Data set [5] deals with A2780. Put plainly: Growth inhibition of cisplatin-resistant human A2780 cells after 96 hrs by sulforhodamine B assay. It counts as functional. Particulars: A2780, 96 h.
The subject of data set [6] is CH1. Put plainly: Growth inhibition of doxorubicin-susceptible human CH1 cells after 96 hrs by sulforhodamine B assay. The conditions noted are these: CH1, 96 h. It counts as functional.
Data set [7] has as its system CH1. Description: Growth inhibition of doxorubicin-resistant human CH1 cells after 96 hrs by sulforhodamine B assay. The format is functional. The conditions noted are these: CH1, 96 h.
In the next data set the test system is HCT-116. Put plainly: Growth inhibition of human HCT116 cells after 96 hrs by sulforhodamine B assay. It counts as functional. Particulars: HCT-116, 96 h.
The test system of the next data set is HT-29. Put plainly: Growth inhibition of human HT-29 cells after 96 hrs by sulforhodamine B assay. The conditions noted are these: HT-29, 96 h. The format is functional.
Another data set concerns KM12. Description: Growth inhibition of human KM12 cells after 96 hrs by sulforhodamine B assay. Particulars: KM12, 96 h. It counts as functional.
Data set [8] can be described thus: Metabolic stability in mouse liver microsomes assessed as compound metabolized at 10 uM after 30 mins by LC-MS analysis. The format is ADME, Microsome. Particulars: read-out: Activity.
For data set [9], the target named is Cyclin-dependent kinase 2/cyclin E1 (Homo sapiens, UniProt P24941). Put plainly: Inhibition of CDK2/cyclin E. It counts as protein-complex assay.
The target of data set [10] is Cyclin-dependent kinase 4/cyclin D1 (Homo sapiens, UniProt P11802). Description: Inhibition of CDK4/cyclin D1. It counts as protein-complex assay.
Data set [11] deals with Cyclin-dependent kinase 7/ cyclin H (Homo sapiens, UniProt P50613). Description: Inhibition of CDK7/cyclin H. The format is protein-complex assay.

For seven compounds, IC50, GI50 and metabolised results are on record in ChEMBL document CHEMBL1921760, “Design, synthesis and biological evaluation of 6-pyridylmethylaminopurines as CDK inhibitors” (Bioorg Med Chem, 2011).

Chain of Mitogen-activated protein kinase 1 (P28482 whole entry): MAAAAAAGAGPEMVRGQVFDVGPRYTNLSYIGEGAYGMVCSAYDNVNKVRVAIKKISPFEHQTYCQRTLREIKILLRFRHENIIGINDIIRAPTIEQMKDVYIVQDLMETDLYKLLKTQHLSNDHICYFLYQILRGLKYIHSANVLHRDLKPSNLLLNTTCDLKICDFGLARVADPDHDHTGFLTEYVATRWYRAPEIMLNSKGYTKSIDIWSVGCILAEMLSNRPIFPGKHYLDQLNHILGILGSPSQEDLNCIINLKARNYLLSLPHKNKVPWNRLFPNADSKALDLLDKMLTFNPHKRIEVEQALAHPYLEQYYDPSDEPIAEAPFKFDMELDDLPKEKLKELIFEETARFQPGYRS
Chain of Cyclin-dependent kinase 4/cyclin D1 (P11802 whole entry): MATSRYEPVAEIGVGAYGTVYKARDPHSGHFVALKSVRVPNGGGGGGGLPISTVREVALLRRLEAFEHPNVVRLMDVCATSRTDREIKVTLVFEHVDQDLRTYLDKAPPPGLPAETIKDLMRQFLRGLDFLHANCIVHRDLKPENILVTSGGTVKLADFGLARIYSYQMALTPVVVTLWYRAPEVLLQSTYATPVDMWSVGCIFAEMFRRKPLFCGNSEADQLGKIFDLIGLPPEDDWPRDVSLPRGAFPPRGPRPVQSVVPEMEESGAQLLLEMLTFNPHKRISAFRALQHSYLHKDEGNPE
Chain of Cyclin-dependent kinase 4/cyclin D1 (P24385 whole entry, further chain): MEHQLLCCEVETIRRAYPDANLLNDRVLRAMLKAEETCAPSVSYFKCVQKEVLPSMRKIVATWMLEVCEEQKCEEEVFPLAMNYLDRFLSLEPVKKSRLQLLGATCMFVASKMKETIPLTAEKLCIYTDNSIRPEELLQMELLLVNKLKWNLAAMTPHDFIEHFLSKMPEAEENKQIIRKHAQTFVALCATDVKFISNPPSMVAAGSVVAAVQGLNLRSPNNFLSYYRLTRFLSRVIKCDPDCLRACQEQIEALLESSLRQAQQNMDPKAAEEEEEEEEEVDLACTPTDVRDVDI
Chain of Cyclin-dependent kinase 1/cyclin B1 (P06493 whole entry): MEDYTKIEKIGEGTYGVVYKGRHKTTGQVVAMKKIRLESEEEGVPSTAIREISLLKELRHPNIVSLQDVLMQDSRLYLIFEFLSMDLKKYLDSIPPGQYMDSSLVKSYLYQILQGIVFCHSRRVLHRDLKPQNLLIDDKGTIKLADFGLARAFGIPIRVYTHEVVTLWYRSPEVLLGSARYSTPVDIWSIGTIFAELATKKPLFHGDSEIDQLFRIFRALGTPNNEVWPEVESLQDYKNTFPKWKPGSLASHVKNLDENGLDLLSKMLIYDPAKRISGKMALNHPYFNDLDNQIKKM
Chain of Cyclin-dependent kinase 1/cyclin B1 (P14635 whole entry, further chain): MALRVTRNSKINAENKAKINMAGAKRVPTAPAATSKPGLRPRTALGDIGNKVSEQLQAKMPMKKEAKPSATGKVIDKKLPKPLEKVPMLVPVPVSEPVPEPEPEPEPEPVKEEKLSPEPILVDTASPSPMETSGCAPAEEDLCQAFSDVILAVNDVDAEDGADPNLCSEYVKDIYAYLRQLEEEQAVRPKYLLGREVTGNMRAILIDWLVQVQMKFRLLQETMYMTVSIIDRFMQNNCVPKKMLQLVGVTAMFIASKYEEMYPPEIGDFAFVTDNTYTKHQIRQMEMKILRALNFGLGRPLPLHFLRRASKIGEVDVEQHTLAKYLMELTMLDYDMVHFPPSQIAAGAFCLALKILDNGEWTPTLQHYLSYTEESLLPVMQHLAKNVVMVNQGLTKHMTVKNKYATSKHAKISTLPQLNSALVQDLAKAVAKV
Chain of Cyclin-dependent kinase 7/ cyclin H (P51946 whole entry): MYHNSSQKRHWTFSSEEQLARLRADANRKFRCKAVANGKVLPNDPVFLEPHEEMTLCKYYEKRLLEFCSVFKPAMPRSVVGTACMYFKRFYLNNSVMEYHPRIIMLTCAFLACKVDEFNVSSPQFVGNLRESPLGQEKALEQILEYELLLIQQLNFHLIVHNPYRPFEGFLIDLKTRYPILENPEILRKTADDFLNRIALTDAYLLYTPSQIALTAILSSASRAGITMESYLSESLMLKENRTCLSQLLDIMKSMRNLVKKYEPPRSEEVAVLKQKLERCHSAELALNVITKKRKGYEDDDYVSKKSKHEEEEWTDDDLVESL
Chain of Cyclin-dependent kinase 7/ cyclin H (P50613 whole entry): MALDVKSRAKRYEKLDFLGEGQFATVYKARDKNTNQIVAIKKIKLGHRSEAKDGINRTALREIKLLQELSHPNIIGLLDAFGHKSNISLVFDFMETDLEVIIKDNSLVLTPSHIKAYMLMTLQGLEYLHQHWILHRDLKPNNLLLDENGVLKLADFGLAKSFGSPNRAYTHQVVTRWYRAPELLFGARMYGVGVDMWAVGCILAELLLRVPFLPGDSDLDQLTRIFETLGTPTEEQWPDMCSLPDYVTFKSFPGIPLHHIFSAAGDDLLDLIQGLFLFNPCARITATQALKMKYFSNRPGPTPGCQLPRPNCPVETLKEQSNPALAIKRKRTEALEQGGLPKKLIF

As for `CC[C@@H](Nc1nc(NCc2cccnc2)c2ncn(C(C)C)c2n1)C(C)O` (mixture of isomers), the IC50 in data set [1] was 4.9 µM; in data set [2], greater than 200 µM; in [3], 23 µM. For the same compound, the GI50 in the data set with A2780 [4] came out at 3.1 µM; with A2780 [5], 4.4 µM; with CH1 [6] it was 4.5 µM; in the data set on CH1 [7], 5.2 µM; in the data set with HCT-116, 2.5 µM; with HT-29, 4.7 µM. Further, the GI50 in the data set on KM12 is 4.7 µM. Besides, the metabolised at 0.5 h, 10 µM in data set [8] came out at 10%.
`CCC(O)[C@@H](CC)Nc1nc(NCc2cccnc2)c2ncn(C(C)C)c2n1` (mixture of isomers): the IC50 in [9] is 0.22 µM; in [1] it was 12 µM; in [10], 25 µM; in [11] it was 1.1 µM; in data set [2], greater than 200 µM. Also, the GI50 in the data set with A2780 [4] was 6.2 µM; in the data set on A2780 [5] it was 19 µM; in the data set on CH1 [6], 18 µM; with CH1 [7], 14.5 µM; with HCT-116, 10 µM; in the data set with HT-29, 20 µM. Also, in the data set on KM12, the GI50 came out at 13.5 µM. For the same compound, the metabolised at 0.5 h, 10 µM in data set [8] came out at 30%.
`CC[C@@H](Nc1nc(NCc2cccnc2)c2ncn(C(C)C)c2n1)C(O)C(C)C` (mixture of isomers): the IC50 was 0.69 µM in data set [9]; 20 µM in data set [1]; 21 µM in data set [10]; 2.2 µM in data set [11]; greater than 200 µM in [2]. Moreover, the GI50 in the data set on A2780 [4] was determined as 23 µM; with A2780 [5], 37 µM; in the data set on CH1 [6] it was 30 µM; in the data set on CH1 [7] it was 25 µM; in the data set with HCT-116, 25 µM; with HT-29 it was 32 µM. Moreover, growth with KM12 was halved (GI50) at 31 µM. For the same compound, the metabolised at 0.5 h, 10 µM in data set [8] was found to be 36%.
Consider `CC[C@@H](Nc1nc(NCc2cccnc2)c2ncn(C(C)C)c2n1)C(O)C(C)(C)C` (mixture of isomers), for which the IC50 in data set [9] was 1 µM; in [1], 23 µM; in [10], 24 µM; in data set [11], 1.6 µM; in data set [2], greater than 200 µM. Besides, the GI50 is 18 µM in the data set on A2780 [4]; 23 µM in the data set with A2780 [5]; 23 µM in the data set with CH1 [6]; 23 µM with CH1 [7]; 20 µM in the data set with HCT-116; 22 µM in the data set on HT-29. In the data set with KM12, this compound registered a GI50 of 19 µM. In addition, the metabolised at 0.5 h, 10 µM in [8] was determined as 46%.
On to `CC[C@H](Nc1nc(NCc2cccnc2)c2ncn(C(C)C)c2n1)C(C)O` (mixture of isomers), for which the IC50 in data set [1] was 2.2 µM; in [2], greater than 200 µM; in data set [3], 20 µM. The GI50 is 0.78 µM with A2780 [4]; 1 µM in the data set on A2780 [5]; 0.92 µM in the data set on CH1 [6]; 1.5 µM in the data set on CH1 [7]; 0.76 µM with HCT-116; 1.1 µM in the data set on HT-29. This compound yielded a GI50 with KM12 of 1.15 µM. Further, the metabolised at 0.5 h, 10 µM in [8] came out at 33%.
Consider `CCC(O)[C@H](CC)Nc1nc(NCc2cccnc2)c2ncn(C(C)C)c2n1` (mixture of isomers), for which the IC50 is 0.11 µM in data set [9]; 13 µM in [1]; 11 µM in [10]; 1.5 µM in [11]; greater than 200 µM in data set [2]. Moreover, the GI50 in the data set on A2780 [4] worked out at 4.3 µM; with A2780 [5], 12.5 µM; with CH1 [6] it was 11 µM; in the data set with CH1 [7], 9.4 µM; in the data set on HCT-116 it was 5.4 µM; in the data set on HT-29 it was 12.5 µM. In the data set with KM12, this compound had a 50% growth inhibitory concentration (GI50) of 8.2 µM. Further, the metabolised at 0.5 h, 10 µM in data set [8] came out at 27%.
On to `CC[C@H](Nc1nc(NCc2ccccc2)c2ncn(C(C)C)c2n1)C(O)C(C)C` (mixture of isomers), for which the IC50 in data set [10] was 33 µM; in data set [11], 3 µM; in data set [2] it was 83 µM; in data set [3], 88 µM. The GI50 amounted to 20 µM in the data set on A2780 [4]; 23 µM in the data set with A2780 [5]; 25 µM with CH1 [6]; 24 µM in the data set on CH1 [7]; 24 µM in the data set on HCT-116; 23 µM in the data set on HT-29. The compound further gave a GI50 in the data set on KM12 of 25 µM. Moreover, the metabolised at 0.5 h, 10 µM in [8] is 76%.
